{"source": "patent US20240018146A1", "about": "“COMPOSITIONS AND METHODS OF USING THE SAME FOR TREATMENT OF NEURODEGENERATIVE AND MITOCHONDRIAL DISEASE” (MITOKININ, INC., priority 2020, published 2024)", "key": {"HeLa MKYP cells [1]": {"system": "HeLa MKYP cells", "test": "Human mitophagy assay (HeLa mKeima assay, FACS)", "type": "cell-based", "settings": "for EC50: Homo sapiens, HeLa", "method_in_brief": "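Mitophagy, read by FACS as the share of cells showing the lysosomal mtKeima emission shift, followed 6 h of 1 uM FCCP/oligomycin stimulation. Before that, HeLa MKYP cells spent 16 h with compound over a concentration range.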"}, "HeLa MKYP cells [2]": {"system": "HeLa MKYP cells", "test": "Cell death measured by DAPI staining, with 1 μM FCCP/oligomycin or no toxin (no FO)", "type": "cell-based", "method_in_brief": "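Cell death was read by DAPI staining after 6–6.5 h compound exposure in HeLa MKYP cells, either with 1 μM FCCP/oligomycin or without toxin. H2O2 served as the cell-death control.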"}, "[3]": {"test": "Mitotoxicity / Mitotox safety margin (therapeutic window)", "type": "cell-based"}, "pS129 α-syn": {"system": "pS129 α-syn", "test": "Preformed fibril (PFF) model in primary neuron culture, pS129 α-syn", "type": "cell-based", "settings": "increasing doses", "method": "4. Preformed Fibril Model\n(§1) Mouse and human alpha-synuclein monomers have been sourced commercially, then pre-formed fibrils have been generated as per the detailed protocol provided by the MJFF. For in vitro experiments primary hippocampal neurons isolated from P0 pups were grown for 7 days after which PFFs at 5 ug/ml were introduced Pre-formed fibrils will be introduced via stereotactic injection into the striatum of wt (C57BL/6J, Jax #000664) and transgenic A53T mice (B6;C3-Tg(Prnp-SNCA*A53T)83Vle/J, Jax #004479). Cohorts of drug-treated (oral gavage) and untreated animals will then be allowed to age for up to 6 months, at which point they will be sacrificed and perfused. Brains will be removed and fixed, then sectioned for analysis. We anticipate that untreated A53T animals will show significant spreading of aggregated alpha-synuclein pathology and pS129 staining, as well as some possible neurodegeneration; wt animals are also expected to show pS129 synuclein staining and synuclein aggregation, albeit less than that seen in the A53T background."}, "pathologic (pS129) α-syn": {"system": "pathologic (pS129) α-syn", "test": "In vivo α-syn (PFF) model, pathologic pS129 α-syn in striatum", "set-up": "species or system mice", "settings": "oral BID dosing at 50, 25, 12.5, and 6.25 mg/kg", "method": "FIG. 9A and FIG. 9B show representative in vivo data of EP-0040180 in an α-syn (PFF) model.\nas §1"}, "cleaved caspase-3": {"system": "cleaved caspase-3", "test": "Cleaved caspase-3 levels in primary neuron culture", "type": "cell-based", "settings": "compared with toxins"}, "Parkin": {"system": "Parkin", "test": "Parkin recruitment to mitochondria (HeLa cells expressing YFP-tagged Parkin, longitudinal imaging)", "type": "cell-based, human", "settings": "FCCP and Oligomycin, cells with Parkin recruited at 60 minutes, FIG. 29", "method": "HeLa cells expressing a YFP-tagged Parkin were treated with […] of FCCP and Oligomycin followed by the specified dose of compound, then analyzed by longitudinal imaging. Percentage of cells with Parkin recruited to mitochondria at 60 minutes is shown."}, "KIM-1": {"system": "KIM-1", "test": "Cisplatin challenge, kidney injury marker (KIM-1) in urine", "type": "in vivo, mice (C57Bl/6)", "settings": "10 mg/kg cisplatin i.p., oral gavage QD, day 3 post-challenge", "method": "(§2) Mice were provided at least one week of acclimation to the animal facility and group housed. Mice were injected intraperitoneally with 1 mg/ml cisplatin solution (BluePoint Labs) or 10 ml/kg sterile-filtered saline using 29G insulin syringes. Mice were weighed and administered vehicle, 35985 or 40180 by oral gavage per the dosing regimens noted in the figures. Mice were monitored for excessive weight loss and euthanized if moribund.\n(§3) 35985 and 40180 are formulated at ten-fold the dosing concentration in NMP (N-methylpyrrolidone) followed by dilution with solutol-15 and water for a final vehicle concentration of 10% NMP/10% solutol-15/80% water.\nUrine was collected from scruffed mice (serial collection) or directly from bladder using insulin syringe during harvest (terminal collection). KIM-1 was measured in mouse urine using R&D System's Mouse TIM-1/KIM-1/HAVCR DuoSet ELISA following manufacturer's published protocol.\nReferring to FIG. 36, mice (C57Bl/6) were challenged with a single intraperitoneal dose of 10 mg/kg cisplatin or saline and dosed by oral gavage once per day (QD) with 40180."}, "Gdf15, Tnfrsf12a": {"system": "Gdf15, Tnfrsf12a", "test": "Cisplatin challenge, kidney expression of mitochondrial-stress related genes (quantitative PCR)", "type": "in vivo, mice (C57Bl/6)", "settings": "10 mg/kg cisplatin i.p., oral gavage QD for three days", "method": "as §2, §3\nRNA was isolated from kidney samples using Rneasy Mini kit (Qiagen) according to its product manual. RNA concentration was measured using NanoDrop™ 2000/2000c Spectrophotometers (Thermo Scientific). 50 ng of RNA for each sample was used to generate cDNA. cDNA was synthesized using High-Capacity RNA-to-cDNA™ Kit (Thermo Scientific) according to its product manual. Quantitative PCR was performed using Power SYBR™ Green PCR Master Mix (Applied Biosystems) according to its product manual. The following primers were used to analyze gene expression levels in the kidney: […]\nAll gene expression levels were normalized to expression levels of beta-actin using ΔΔCt and expressed as fold change relative to cisplatin vehicle treated mice. […]"}, "Kinetic solubility": {"test": "Kinetic solubility", "type": "physicochemical"}, "[4]": {"test": "Inspection of crystallization and round cells", "type": "physicochemical", "set-up": "key: 1=yes crystals; 0=no crystals", "method": "5. Inspection of Crystallization and Round Cells\nBriefly, the Hela MKYP (Mito-Keima/YFP-Parkin) cells were seeded at 10K cells/well. EP/MTK compounds were added at seeding (cells were still in suspension). The cells were incubated with the EP/MTK compounds for 16 hours, then 1 μM FCCP/oligomycin was added for 6 hours. Prior to harvesting, cells were scored by eye under 20× magnification for the presence or absence of crystalline or aggregated compound, or round cells."}, "[5]": {"settings": "read-out: Mitophagy induction EC50"}}, "note": "“Also recorded” adds a separate entry of the source. Like-named read-outs stand apart in the source and are kept apart here."}
{"smiles": "c1ccc2c(c1)OC[C@H](N1CCOCC1)[C@H]2Nc1ncnc2[nH]c(C3CC3)cc12", "note": "(single isomer, unassigned) [EP-0040180]", "values": [{"measurement": "percentage of cells undergoing mitophagy", "setting": "HeLa MKYP cells [1]; HeLa cells expressing mtKeima, FCCP and Oligomycin, FACS, FIG. 28", "result": "induce mitophagy in a dose dependent manner; also recorded: dose responsive increase in the percentage of cells undergoing mitophagy"}, {"measurement": "EC50", "setting": "HeLa MKYP cells [1]; [5]", "result": 0.26, "unit": "µM"}, {"measurement": "Highest safe dose (cytotoxicity; no FO; safe means DAPI+ <20%)", "setting": "HeLa MKYP cells [2]; no FO", "result": 25.0, "unit": "µM"}, {"measurement": "Max % death with 1 μM FO", "setting": "HeLa MKYP cells [2]; with 1 μM FO", "result": 10.4, "unit": "%"}, {"measurement": "Mito-Safety Index (highest safe dose/EC50)", "setting": "[3]", "result": 97.54}, {"measurement": "Highest safe dose (μM) (mitotox or cytotox)", "setting": "[3]", "result": 25.0, "unit": "µM"}, {"measurement": "pS129 α-syn (250-12) in primary neuron culture", "setting": "pS129 α-syn", "result": "reduces"}, {"measurement": "pS129 α-syn (monomer) in primary neuron culture", "setting": "pS129 α-syn", "result": "reduces"}, {"measurement": "pS129 α-syn in primary neuron culture", "setting": "pS129 α-syn", "result": "reduces"}, {"measurement": "pathologic (pS129) α-syn (250-12) from the striatum induced by PFF challenge", "setting": "pathologic (pS129) α-syn", "result": "significantly reduces"}, {"measurement": "pathologic (pS129) α-syn (monomer) from the striatum induced by PFF challenge", "setting": "pathologic (pS129) α-syn", "result": "significantly reduces"}, {"measurement": "cleaved caspase-3 levels", "setting": "cleaved caspase-3", "result": "do not significantly alter"}, {"measurement": "Parkin recruitment to mitochondria", "setting": "Parkin", "result": "accelerate recruitment of Parkin to mitochondria; also recorded: dose responsive increase in the rate of Parkin recruitment to mitochondria"}, {"measurement": "KIM-1 (kidney-injury marker 1), urine", "setting": "KIM-1", "result": "dose-dependent rescue of KIM-1; also recorded: reduces KIM-1"}, {"measurement": "expression of mitochondrial-stress related genes Gdf15 and Tnfrsf12a in kidney", "setting": "Gdf15, Tnfrsf12a", "result": "reduced expression of these genes in a dose-responsive manner; also recorded: reduces expression of mitochondrial-stress related genes"}]}
{"smiles": "FC(F)(F)c1cc2c(N[C@H]3c4ccccc4CC[C@@H]3N3C[C@@H]4COC[C@H]4C3)ncnc2[nH]1", "note": "(single isomer, unassigned) [EP-0040270]", "values": [{"measurement": "pS129 α-syn (250-12) in primary neuron culture", "setting": "pS129 α-syn", "result": "reduces"}, {"measurement": "pS129 α-syn (monomer) in primary neuron culture", "setting": "pS129 α-syn", "result": "reduces"}, {"measurement": "pS129 α-syn in primary neuron culture", "setting": "pS129 α-syn", "result": "reduces"}, {"measurement": "cleaved caspase-3 levels", "setting": "cleaved caspase-3", "result": "increase cleaved caspase-3 levels"}]}
{"smiles": "FC(F)(F)c1cc2c(N[C@H]3c4ccccc4CC[C@@H]3N3C[C@H]4COC[C@H]4C3)ncnc2[nH]1", "note": "[EP-0038461]", "values": [{"measurement": "E102 max mitophagy, fold over DMSO", "setting": "HeLa MKYP cells [1]; 1 μM FCCP/oligomycin", "result": 5.44, "unit": "fold over DMSO"}, {"measurement": "EC50", "setting": "HeLa MKYP cells [1]; HeLa mKeima assay, read-out: Mitophagy EC50 (HeLa mKeima assay)", "result": 0.11, "unit": "µM"}, {"measurement": "EC50", "setting": "HeLa MKYP cells [1]; average ± spread, read-out: E100 EC50 (μM) (average)", "result": "0.1 ± 0.01", "unit": "µM"}, {"measurement": "EC50", "setting": "HeLa MKYP cells [1]; mitophagy, 1 μM FCCP/oligomycin, read-out: E100 EC50", "result": 0.11, "unit": "µM"}, {"measurement": "EC50", "setting": "HeLa MKYP cells [1]; [5]", "result": 0.1, "unit": "µM"}, {"measurement": "E101 lowest effective dose", "setting": "HeLa MKYP cells [1]; mitophagy, 1 μM FCCP/oligomycin", "result": 0.93, "unit": "µM"}, {"measurement": "Max cell death at 25 μM compound, 1 uM FO (%)", "setting": "HeLa MKYP cells [2]; 25 μM compound, 1 uM FO", "result": 7.97, "unit": "%"}, {"measurement": "Cell death at 25 μM (no FO) (%)", "setting": "HeLa MKYP cells [2]; 25 μM compound, no FO", "result": 4.31, "unit": "%"}, {"measurement": "Highest safe dose (cytotoxicity; no FO; safe means DAPI+ <20%)", "setting": "HeLa MKYP cells [2]; no FO", "result": 25.0, "unit": "µM"}, {"measurement": "E103 max death with 1 μM FO", "setting": "HeLa MKYP cells [2]; with 1 μM FO", "result": 7.97}, {"measurement": "Max % death with 1 μM FO", "setting": "HeLa MKYP cells [2]; with 1 μM FO", "result": 9.7, "unit": "%"}, {"measurement": "Mitotox safety margin (Therapeutic window)", "setting": "[3]", "result": "+++ (+++ = 20 < x < 30)"}, {"measurement": "mitotoxicity", "setting": "[3]; FIG. 5-7", "result": "low mitotoxicity"}, {"measurement": "Mito-Safety Index (highest safe dose/EC50)", "setting": "[3]", "result": 27.53}, {"measurement": "Highest safe dose (μM) (mitotox or cytotox)", "setting": "[3]", "result": 2.8, "unit": "µM"}, {"measurement": "solubility kinetic", "setting": "Kinetic solubility", "result": 1.56, "unit": "µM"}, {"measurement": "visual inspection of crystallization", "setting": "[4]; 0.1 μM compound", "result": 0}, {"measurement": "visual inspection of crystallization", "setting": "[4]; 0.3 μM compound", "result": 0}, {"measurement": "visual inspection of crystallization", "setting": "[4]; 0.9 μM compound", "result": 0}, {"measurement": "visual inspection of crystallization", "setting": "[4]; 2.8 μM compound", "result": 0}, {"measurement": "visual inspection of crystallization", "setting": "[4]; 8.3 μM compound", "result": 0}, {"measurement": "visual inspection of crystallization", "setting": "[4]; 25.0 μM compound, HeLa MKYP culture, 20× magnification", "result": 1}]}
